Data from patent publication EP4745137A1 (Gluetacs Therapeutics (Shanghai) Co., Ltd., priority 2023, dated 2025).
Blank lines part the entries; values can stand above or below the compound they belong to.

What was measured:
WEE1 = target: T1, WEE1 (Homo sapiens, UniProt P30291+Q96SW2); assay: Western-blot assay of substrate protein degradation in hPBMCs, WEE1; format: cell-based; conditions: 24 hours of compound treatment, 50 nM and 500 nM tested (concentration behind the class not stated)
T1 construct: endogenous in cells; host or cells: hPBMCs (Milecell Biotechnologies)

IKZF1 = target: T2, IKZF1 (Homo sapiens, UniProt Q13422+Q96SW2); assay: Western-blot assay of substrate protein degradation in hPBMCs, IKZF1; format: cell-based; conditions: 24 hours of compound treatment, 50 nM and 500 nM tested (concentration behind the class not stated)
T2 construct: endogenous in cells; host or cells: hPBMCs (Milecell Biotechnologies)

IKZF2 = target: T3, IKZF2 (Homo sapiens, UniProt Q96SW2+Q9UKS7); assay: Western-blot assay of substrate protein degradation in hPBMCs, IKZF2; format: cell-based; conditions: 24 hours of compound treatment, 50 nM and 500 nM tested (concentration behind the class not stated)
T3 construct: endogenous in cells; host or cells: hPBMCs (Milecell Biotechnologies)

IKZF3 = target: T4, IKZF3 (Homo sapiens, UniProt Q96SW2+Q9UKT9); assay: Western-blot assay of substrate protein degradation in hPBMCs, IKZF3; format: cell-based; conditions: 24 hours of compound treatment, 50 nM and 500 nM tested (concentration behind the class not stated)
T4 construct: endogenous in cells; host or cells: hPBMCs (Milecell Biotechnologies)

CK1α = target: T5, CK1α (Homo sapiens, UniProt P48729+Q96SW2); assay: Western-blot assay of substrate protein degradation in hPBMCs, CK1α; format: cell-based; conditions: 24 hours of compound treatment, 50 nM and 500 nM tested (concentration behind the class not stated)
T5 construct: endogenous in cells; host or cells: hPBMCs (Milecell Biotechnologies)

GSPT1 = target: T6, GSPT1 (Homo sapiens, UniProt P15170+Q96SW2); assay: Western-blot assay of substrate protein degradation in hPBMCs, GSPT1; format: cell-based; conditions: 24 hours of compound treatment, 50 nM and 500 nM tested (concentration behind the class not stated)
T6 construct: endogenous in cells; host or cells: hPBMCs (Milecell Biotechnologies)

[1] = system: Human acute T lymphocytic leukemia cells (Molt-4); assay: Tumor cell proliferation inhibition (CellTiter-Meiluncell Luminescent Cell Viability Assay), Molt-4; conditions: MOLT-4, read-out: inhibitory activity (IC50, nM) against tumor cells proliferation, Molt-4
MV-4-11 = assay: Tumor cell proliferation inhibition (CellTiter-Meiluncell Luminescent Cell Viability Assay), MV-4-11; conditions: Homo sapiens, MV4-11, read-out: inhibitory activity (IC50, nM) against tumor cells proliferation, MV-4-11
CCRF-CEM = assay: Tumor cell proliferation inhibition (CellTiter-Meiluncell Luminescent Cell Viability Assay), CCRF-CEM; conditions: Homo sapiens, read-out: inhibitory activity (IC50, nM) against tumor cells proliferation, CCRF-CEM
[2] = target: T7, human Cereblon WT GST-tagged protein (Homo sapiens, UniProt Q96SW2); assay: CRBN-binding affinity by HTRF (CEREBLON BINDING kit); conditions: HTRF inhibitory activity, CEREBLON BINDING kit; read-out: HTRF IC50
T7 construct: purchased CISBIO 64BDCRBNPEH
T7 sequence (Q96SW2 whole entry): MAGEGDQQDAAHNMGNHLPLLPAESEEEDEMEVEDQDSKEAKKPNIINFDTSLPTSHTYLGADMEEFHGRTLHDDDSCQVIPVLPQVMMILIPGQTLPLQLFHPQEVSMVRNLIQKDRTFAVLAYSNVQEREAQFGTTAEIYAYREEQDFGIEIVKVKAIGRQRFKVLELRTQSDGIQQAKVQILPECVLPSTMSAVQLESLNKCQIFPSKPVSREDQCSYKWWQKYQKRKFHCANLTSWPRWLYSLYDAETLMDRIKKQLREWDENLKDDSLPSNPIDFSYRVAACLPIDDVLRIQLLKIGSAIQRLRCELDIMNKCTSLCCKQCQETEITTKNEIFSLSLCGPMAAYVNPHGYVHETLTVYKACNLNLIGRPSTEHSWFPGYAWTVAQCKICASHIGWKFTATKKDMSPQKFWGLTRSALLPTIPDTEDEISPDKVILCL

T1 sequence (P30291 whole entry): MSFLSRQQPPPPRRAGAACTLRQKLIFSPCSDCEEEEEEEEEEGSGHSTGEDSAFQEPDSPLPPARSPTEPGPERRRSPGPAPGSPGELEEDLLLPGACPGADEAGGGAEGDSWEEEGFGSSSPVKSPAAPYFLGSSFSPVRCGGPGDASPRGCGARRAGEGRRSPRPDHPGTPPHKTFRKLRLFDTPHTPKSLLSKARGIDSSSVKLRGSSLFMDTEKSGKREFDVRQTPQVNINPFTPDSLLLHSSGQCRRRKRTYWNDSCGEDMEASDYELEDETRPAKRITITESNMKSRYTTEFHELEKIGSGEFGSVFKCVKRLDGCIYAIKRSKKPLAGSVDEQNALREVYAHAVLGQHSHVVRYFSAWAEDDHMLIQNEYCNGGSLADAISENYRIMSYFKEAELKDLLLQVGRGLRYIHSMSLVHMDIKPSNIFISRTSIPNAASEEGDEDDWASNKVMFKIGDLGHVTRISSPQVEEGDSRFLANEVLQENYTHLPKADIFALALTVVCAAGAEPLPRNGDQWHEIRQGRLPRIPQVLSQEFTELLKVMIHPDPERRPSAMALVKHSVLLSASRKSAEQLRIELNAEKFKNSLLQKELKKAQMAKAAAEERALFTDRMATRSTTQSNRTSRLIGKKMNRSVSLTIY
T1 sequence (Q96SW2 whole entry): as the sequence (Q96SW2 whole entry) above
T1 sequence (Q16531 whole entry partner): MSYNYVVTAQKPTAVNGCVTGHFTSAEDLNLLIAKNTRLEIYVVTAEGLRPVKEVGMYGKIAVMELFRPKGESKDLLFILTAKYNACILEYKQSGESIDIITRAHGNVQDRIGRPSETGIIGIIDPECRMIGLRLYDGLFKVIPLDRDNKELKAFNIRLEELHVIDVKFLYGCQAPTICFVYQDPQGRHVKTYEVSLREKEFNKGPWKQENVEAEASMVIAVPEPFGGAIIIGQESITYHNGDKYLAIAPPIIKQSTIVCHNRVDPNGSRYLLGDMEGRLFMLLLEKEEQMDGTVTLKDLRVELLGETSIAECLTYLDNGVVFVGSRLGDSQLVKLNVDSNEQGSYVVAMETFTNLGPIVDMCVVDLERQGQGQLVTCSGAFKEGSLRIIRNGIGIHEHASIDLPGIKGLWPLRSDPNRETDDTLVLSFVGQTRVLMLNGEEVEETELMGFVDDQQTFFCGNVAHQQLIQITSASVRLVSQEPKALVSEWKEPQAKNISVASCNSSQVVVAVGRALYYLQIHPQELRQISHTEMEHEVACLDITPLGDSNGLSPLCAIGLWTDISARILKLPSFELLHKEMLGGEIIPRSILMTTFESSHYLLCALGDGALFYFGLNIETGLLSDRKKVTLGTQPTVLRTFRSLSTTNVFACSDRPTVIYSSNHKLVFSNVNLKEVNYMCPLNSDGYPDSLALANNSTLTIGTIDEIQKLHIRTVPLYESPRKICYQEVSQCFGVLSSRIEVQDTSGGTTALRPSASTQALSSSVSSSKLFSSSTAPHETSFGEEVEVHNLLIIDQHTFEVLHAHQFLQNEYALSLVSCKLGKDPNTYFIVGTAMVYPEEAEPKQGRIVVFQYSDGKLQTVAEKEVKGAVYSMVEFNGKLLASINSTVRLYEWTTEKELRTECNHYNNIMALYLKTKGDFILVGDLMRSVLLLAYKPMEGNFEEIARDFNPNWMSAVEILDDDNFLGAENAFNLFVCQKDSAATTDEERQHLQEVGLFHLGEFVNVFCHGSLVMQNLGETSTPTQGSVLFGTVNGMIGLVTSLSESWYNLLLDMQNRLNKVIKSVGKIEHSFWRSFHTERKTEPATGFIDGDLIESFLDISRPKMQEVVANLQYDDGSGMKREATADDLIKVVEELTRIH
T4 sequence (Q9UKT9 whole entry): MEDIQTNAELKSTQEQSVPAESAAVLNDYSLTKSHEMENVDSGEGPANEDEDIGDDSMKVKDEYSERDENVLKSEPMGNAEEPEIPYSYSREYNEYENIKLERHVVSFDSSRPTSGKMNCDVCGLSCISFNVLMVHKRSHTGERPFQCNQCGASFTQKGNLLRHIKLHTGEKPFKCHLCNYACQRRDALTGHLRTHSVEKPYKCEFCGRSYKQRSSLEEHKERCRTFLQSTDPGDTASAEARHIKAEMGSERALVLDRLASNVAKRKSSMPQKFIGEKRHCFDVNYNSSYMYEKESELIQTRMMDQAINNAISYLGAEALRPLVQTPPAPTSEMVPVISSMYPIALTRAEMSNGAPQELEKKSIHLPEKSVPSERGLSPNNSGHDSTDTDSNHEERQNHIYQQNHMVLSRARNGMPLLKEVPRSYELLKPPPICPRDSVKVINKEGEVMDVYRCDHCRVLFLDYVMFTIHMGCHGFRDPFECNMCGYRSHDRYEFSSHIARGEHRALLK
T4 sequence (Q96SW2 whole entry): as the sequence (Q96SW2 whole entry) above
T4 sequence (Q16531 whole entry partner): as the sequence (Q16531 whole entry partner) above
T2 sequence (Q13422 whole entry): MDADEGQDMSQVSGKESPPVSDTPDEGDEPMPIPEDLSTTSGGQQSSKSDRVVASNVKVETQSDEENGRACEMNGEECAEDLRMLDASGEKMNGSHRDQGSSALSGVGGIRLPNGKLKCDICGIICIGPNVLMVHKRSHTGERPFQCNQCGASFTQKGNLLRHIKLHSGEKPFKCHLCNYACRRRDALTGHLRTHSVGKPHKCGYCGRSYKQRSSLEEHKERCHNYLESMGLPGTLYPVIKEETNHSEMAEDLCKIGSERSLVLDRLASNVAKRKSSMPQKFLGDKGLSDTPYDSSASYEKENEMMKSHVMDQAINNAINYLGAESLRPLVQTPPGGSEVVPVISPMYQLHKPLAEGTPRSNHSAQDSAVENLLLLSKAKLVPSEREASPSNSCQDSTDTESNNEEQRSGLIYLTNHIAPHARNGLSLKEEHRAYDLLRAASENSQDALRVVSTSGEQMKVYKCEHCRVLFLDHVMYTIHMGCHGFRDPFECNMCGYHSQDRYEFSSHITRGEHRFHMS
T2 sequence (Q96SW2 whole entry): as the sequence (Q96SW2 whole entry) above
T2 sequence (Q16531 whole entry partner): as the sequence (Q16531 whole entry partner) above
T5 sequence (P48729 whole entry): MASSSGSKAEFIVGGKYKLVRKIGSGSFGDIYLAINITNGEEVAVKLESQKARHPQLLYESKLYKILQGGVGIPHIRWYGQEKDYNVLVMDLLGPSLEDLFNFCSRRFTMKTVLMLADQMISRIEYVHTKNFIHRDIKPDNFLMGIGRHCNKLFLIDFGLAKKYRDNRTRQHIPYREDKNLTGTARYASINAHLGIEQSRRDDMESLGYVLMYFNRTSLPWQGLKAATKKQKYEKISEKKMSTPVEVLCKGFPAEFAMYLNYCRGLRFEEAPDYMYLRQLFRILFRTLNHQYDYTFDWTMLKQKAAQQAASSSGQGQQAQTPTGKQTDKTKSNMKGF
T5 sequence (Q96SW2 whole entry): as the sequence (Q96SW2 whole entry) above
T5 sequence (Q16531 whole entry partner): as the sequence (Q16531 whole entry partner) above
T6 sequence (P15170 whole entry): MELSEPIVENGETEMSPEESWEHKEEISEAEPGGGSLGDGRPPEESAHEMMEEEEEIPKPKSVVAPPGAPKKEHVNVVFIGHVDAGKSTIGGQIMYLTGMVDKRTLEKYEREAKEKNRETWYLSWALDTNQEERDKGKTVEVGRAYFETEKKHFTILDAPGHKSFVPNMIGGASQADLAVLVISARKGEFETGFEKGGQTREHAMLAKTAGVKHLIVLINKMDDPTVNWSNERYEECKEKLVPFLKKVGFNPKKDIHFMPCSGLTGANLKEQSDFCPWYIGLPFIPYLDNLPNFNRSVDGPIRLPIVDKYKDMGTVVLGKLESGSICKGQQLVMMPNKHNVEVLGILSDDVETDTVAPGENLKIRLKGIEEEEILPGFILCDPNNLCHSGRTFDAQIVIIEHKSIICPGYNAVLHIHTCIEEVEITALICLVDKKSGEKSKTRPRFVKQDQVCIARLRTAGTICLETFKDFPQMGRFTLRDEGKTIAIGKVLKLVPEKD
T6 sequence (Q96SW2 whole entry): as the sequence (Q96SW2 whole entry) above
T6 sequence (Q16531 whole entry partner): as the sequence (Q16531 whole entry partner) above

Compound: O=C1CCC(N2C(=O)c3ccc(CN4CC=C(c5cncc(Cl)c5)CC4)cc3C2=O)C(=O)N1 (stereo not shown) [GT-06611, 5-((5-chloro-3',6'-dihydro-[3,4'-bipyridin]-1'(2'H)-yl)methyl)-2-(2,6-dioxopiperidin-3-yl)isoindoline-1,3-dione]
Weel substrate protein remaining % (WEE1): A (0% ≤ substrate protein remaining % ≤ 80%) | IKZF 1 substrate protein remaining % (IKZF1): A (0% ≤ substrate protein remaining % ≤ 80%) | IKZF2 substrate protein remaining % (IKZF2): A (0% ≤ substrate protein remaining % ≤ 80%) | IKZF3 substrate protein remaining % (IKZF3): A (0% ≤ substrate protein remaining % ≤ 80%) | CK1a substrate protein remaining % (CK1α): A (0% ≤ substrate protein remaining % ≤ 80%) | GSPT1 substrate protein remaining % (GSPT1): A (0% ≤ substrate protein remaining % ≤ 80%) | IC50 [1]: 500 to 1000 nM | IC50 (MV-4-11): 100 to 500 nM | IC50 (CCRF-CEM): 100 to 500 nM

Compound: O=C1CCC(N2C(=O)c3ccc(CN4CC=C(c5ncccc5F)CC4)cc3C2=O)C(=O)N1 (stereo not shown) [GT-06612, 2-(2,6-dioxopiperidin-3-yl)-5-((3-fluoro-3',6'-dihydro-[2,4'-bipyridin]-1'(2'H)-yl)methyl)isoindoline-1,3-dione]
Weel substrate protein remaining % (WEE1): A (0% ≤ substrate protein remaining % ≤ 80%) | IKZF 1 substrate protein remaining % (IKZF1): A (0% ≤ substrate protein remaining % ≤ 80%) | IKZF2 substrate protein remaining % (IKZF2): A (0% ≤ substrate protein remaining % ≤ 80%) | IKZF3 substrate protein remaining % (IKZF3): A (0% ≤ substrate protein remaining % ≤ 80%) | CK1a substrate protein remaining % (CK1α): A (0% ≤ substrate protein remaining % ≤ 80%) | GSPT1 substrate protein remaining % (GSPT1): A (0% ≤ substrate protein remaining % ≤ 80%) | IC50 [1]: 500 to 1000 nM | IC50 (MV-4-11): 500 to 1000 nM | IC50 (CCRF-CEM): 500 to 1000 nM

Compound: O=C1CCC(N2C(=O)c3ccc(CN4CCC(N5CCc6cc(F)ccc65)CC4)cc3C2=O)C(=O)N1 (stereo not shown) [GT-06637, 2-(2,6-dioxopiperidin-3-yl)-5-((4-(5-fluoroindolin-1-yl)piperidin-1-yl)methyl)isoindoline-1,3-dione]
Weel substrate protein remaining % (WEE1): A (0% ≤ substrate protein remaining % ≤ 80%) | IKZF 1 substrate protein remaining % (IKZF1): A (0% ≤ substrate protein remaining % ≤ 80%) | IKZF2 substrate protein remaining % (IKZF2): A (0% ≤ substrate protein remaining % ≤ 80%) | IKZF3 substrate protein remaining % (IKZF3): A (0% ≤ substrate protein remaining % ≤ 80%) | CK1a substrate protein remaining % (CK1α): A (0% ≤ substrate protein remaining % ≤ 80%) | GSPT1 substrate protein remaining % (GSPT1): A (0% ≤ substrate protein remaining % ≤ 80%) | IC50 (MV-4-11): 50 to 100 nM

Compound: O=C1CCC(N2C(=O)c3ccc(CN4CCC(n5cnc6cc(F)ccc65)CC4)cc3C2=O)C(=O)N1 (stereo not shown) [GT-06638, 2-(2,6-dioxopiperidin-3-yl)-5-((4-(5-fluoro-1H-benzo[d]imidazol-1-yl)piperidin-1-yl)methyl)isoindoline-1,3-dione]
Weel substrate protein remaining % (WEE1): A (0% ≤ substrate protein remaining % ≤ 80%) | IKZF 1 substrate protein remaining % (IKZF1): B (80%< substrate protein remaining %≤ 100%) | IKZF2 substrate protein remaining % (IKZF2): B (80%< substrate protein remaining %≤ 100%) | IKZF3 substrate protein remaining % (IKZF3): B (80%< substrate protein remaining %≤ 100%) | CK1a substrate protein remaining % (CK1α): A (0% ≤ substrate protein remaining % ≤ 80%) | GSPT1 substrate protein remaining % (GSPT1): A (0% ≤ substrate protein remaining % ≤ 80%) | IC50 (MV-4-11): 500 to 1000 nM

The next lines start with results.

IC50 [1]: 100 to 500 nM | IC50 (MV-4-11): 100 to 500 nM | IC50 (CCRF-CEM): 100 to 500 nM
Compound: Cc1nc(C2=CCN(Cc3ccc4c(c3)C(=O)N(C3CCC(=O)NC3=O)C4=O)CC2)c2ccsc2n1 (stereo not shown) [GT-06678, 2-(2,6-dioxopiperidin-3-yl)-5-((4-(2-methylthieno[2,3-d]pyrimidin-4-yl)-3,6-dihydropyridin-1(2H)-yl)methyl)isoindoline-1,3-dione]
Weel substrate protein remaining % (WEE1): A (0% ≤ substrate protein remaining % ≤ 80%) | IKZF 1 substrate protein remaining % (IKZF1): A (0% ≤ substrate protein remaining % ≤ 80%) | IKZF2 substrate protein remaining % (IKZF2): B (80%< substrate protein remaining %≤ 100%) | IKZF3 substrate protein remaining % (IKZF3): A (0% ≤ substrate protein remaining % ≤ 80%) | CK1a substrate protein remaining % (CK1α): A (0% ≤ substrate protein remaining % ≤ 80%) | GSPT1 substrate protein remaining % (GSPT1): A (0% ≤ substrate protein remaining % ≤ 80%)

IC50 [2]: 1500 to 1900 nM | IC50 (MV-4-11): 100 to 500 nM
Compound: Cc1nc(C2=CCN(Cc3ccc4c(c3)C(=O)N(C3CCC(=O)NC3=O)C4=O)CC2)c2c3c(sc2n1)CCCC3 (stereo not shown) [GT-06679, 2-(2,6-dioxopiperidin-3-yl)-5-((4-(2-methyl-5,6,7,8-tetrahydrobenzo[4,5]thieno[2,3-d]pyrimidin-4-yl)-3,6-dihydropyridin-1(2H)-yl)methyl)isoindoline-1,3-dione]
Weel substrate protein remaining % (WEE1): A (0% ≤ substrate protein remaining % ≤ 80%) | IKZF 1 substrate protein remaining % (IKZF1): B (80%< substrate protein remaining %≤ 100%) | IKZF2 substrate protein remaining % (IKZF2): B (80%< substrate protein remaining %≤ 100%) | IKZF3 substrate protein remaining % (IKZF3): A (0% ≤ substrate protein remaining % ≤ 80%) | CK1a substrate protein remaining % (CK1α): B (80%< substrate protein remaining %≤ 100%) | GSPT1 substrate protein remaining % (GSPT1): B (80%< substrate protein remaining %≤ 100%)

IC50 [2]: 1500 to 1900 nM | IC50 (MV-4-11): 500 to 1000 nM
Compound: O=C1CCC(N2C(=O)c3ccc(CN4CC=C(c5ncnc6sc7c(c56)CCC7)CC4)cc3C2=O)C(=O)N1 (stereo not shown) [GT-06681, 5-((4-(6,7-dihydro-5H-cyclopenta[4,5]thieno[2,3-d]pyrimidin-4-yl)-3,6-dihydropyridin-1(2H)-yl)methyl)-2-(2,6-dioxopiperidin-3-yl)isoindoline-1,3-dione]
Weel substrate protein remaining % (WEE1): A (0% ≤ substrate protein remaining % ≤ 80%) | IKZF 1 substrate protein remaining % (IKZF1): A (0% ≤ substrate protein remaining % ≤ 80%) | IKZF2 substrate protein remaining % (IKZF2): A (0% ≤ substrate protein remaining % ≤ 80%) | IKZF3 substrate protein remaining % (IKZF3): A (0% ≤ substrate protein remaining % ≤ 80%) | CK1a substrate protein remaining % (CK1α): B (80%< substrate protein remaining %≤ 100%) | GSPT1 substrate protein remaining % (GSPT1): A (0% ≤ substrate protein remaining % ≤ 80%)

IC50 [1]: 500 to 1000 nM | IC50 (MV-4-11): 100 to 500 nM | IC50 (CCRF-CEM): 500 to 1000 nM
Compound: O=C1CCC(N2C(=O)c3ccc(CN4CC=C(c5ncc6ccsc6n5)CC4)cc3C2=O)C(=O)N1 (stereo not shown) [GT-06683, 2-(2,6-dioxopiperidin-3-yl)-5-((4-(thieno[2,3-d]pyrimidin-2-yl)-3,6-dihydropyridin-1(2H)-yl)methyl)isoindoline-1,3-dione]
Weel substrate protein remaining % (WEE1): A (0% ≤ substrate protein remaining % ≤ 80%) | IKZF 1 substrate protein remaining % (IKZF1): A (0% ≤ substrate protein remaining % ≤ 80%) | IKZF2 substrate protein remaining % (IKZF2): A (0% ≤ substrate protein remaining % ≤ 80%) | IKZF3 substrate protein remaining % (IKZF3): A (0% ≤ substrate protein remaining % ≤ 80%) | CK1a substrate protein remaining % (CK1α): B (80%< substrate protein remaining %≤ 100%) | GSPT1 substrate protein remaining % (GSPT1): A (0% ≤ substrate protein remaining % ≤ 80%)

IC50 (MV-4-11): 100 to 500 nM
Compound: O=C1CCC(N2C(=O)c3ccc(CN4CCN(c5nc(N6CCOCC6)nc6c5SCC6)CC4)cc3C2=O)C(=O)N1 (stereo not shown) [GT-06712, 2-(2,6-dioxopiperidin-3-yl)-5-((4-(2-morpholino-6,7-dihydrothieno[3,2-d]pyrimidin-4-yl)piperazin-1-yl)methyl)isoindoline-1,3-dione]
Weel substrate protein remaining % (WEE1): B (80%< substrate protein remaining %≤ 100%) | IKZF 1 substrate protein remaining % (IKZF1): B (80%< substrate protein remaining %≤ 100%) | IKZF2 substrate protein remaining % (IKZF2): B (80%< substrate protein remaining %≤ 100%) | IKZF3 substrate protein remaining % (IKZF3): B (80%< substrate protein remaining %≤ 100%) | CK1a substrate protein remaining % (CK1α): B (80%< substrate protein remaining %≤ 100%) | GSPT1 substrate protein remaining % (GSPT1): A (0% ≤ substrate protein remaining % ≤ 80%)

IC50 (MV-4-11): 10 to 50 nM
Compound: O=C1CCC(N2C(=O)c3ccc(CN4CCN(c5nc(N6CCOCC6)nc6ccsc56)CC4)cc3C2=O)C(=O)N1 (stereo not shown) [GT-06717, 2-(2,6-dioxopiperidin-3-yl)-5-((4-(2-morpholinothieno[3,2-d]pyrimidin-4-yl)piperazin-1-yl)methyl)isoindoline-1,3-dione]
Weel substrate protein remaining % (WEE1): A (0% ≤ substrate protein remaining % ≤ 80%) | IKZF 1 substrate protein remaining % (IKZF1): A (0% ≤ substrate protein remaining % ≤ 80%) | IKZF2 substrate protein remaining % (IKZF2): B (80%< substrate protein remaining %≤ 100%) | IKZF3 substrate protein remaining % (IKZF3): B (80%< substrate protein remaining %≤ 100%) | CK1a substrate protein remaining % (CK1α): B (80%< substrate protein remaining %≤ 100%) | GSPT1 substrate protein remaining % (GSPT1): A (0% ≤ substrate protein remaining % ≤ 80%)

IC50 [2]: 1000 to 1500 nM | IC50 (MV-4-11): 100 to 500 nM
Compound: O=C1CCC(N2C(=O)c3ccc(CN4CCN(c5nc(N6CCOCC6)c6sccc6n5)CC4)cc3C2=O)C(=O)N1 (stereo not shown) [GT-06718, 2-(2,6-dioxopiperidin-3-yl)-5-((4-(4-morpholinothieno[3,2-d]pyrimidin-2-yl)piperazin-1-yl)methyl)isoindoline-1,3-dione]
Weel substrate protein remaining % (WEE1): B (80%< substrate protein remaining %≤ 100%) | IKZF 1 substrate protein remaining % (IKZF1): B (80%< substrate protein remaining %≤ 100%) | IKZF2 substrate protein remaining % (IKZF2): B (80%< substrate protein remaining %≤ 100%) | IKZF3 substrate protein remaining % (IKZF3): B (80%< substrate protein remaining %≤ 100%) | CK1a substrate protein remaining % (CK1α): B (80%< substrate protein remaining %≤ 100%) | GSPT1 substrate protein remaining % (GSPT1): A (0% ≤ substrate protein remaining % ≤ 80%)
